Columns and labels:
[1] = Liver Microsome Stability Assay, human; format: in vitro ADME; details: human liver microsomes, with NADPH, 1 μM compound, read-out: Human liver microsome clearance
Protocol: The master solution was prepared according to Table 6.
Two separate experiments were performed as follows.
With Cofactors (NADPH): 25 μL of 10 mM NADPH was added to the incubations. The final concentrations of microsomes and NADPH were 0.5 mg/mL and 1 mM, respectively. The final concentration of microsomes was 0.5 mg/mL. The mixture was pre-warmed at 37° C. for 10 minutes. The reaction was started with the addition of 2.5 μL of 100 μM control compound or test compound solutions. Verapamil was used as positive control in this study. The final concentration of test compound or control compound was 1 μM. The incubation solution was incubated in water batch at 37° C. Aliquots of 25 μL were taken from the reaction solution at 0.5, 5, 15, 30 and 60 minutes. The reaction was stopped by the addition of 5 volumes of cold acetonitrile with IS (200 nM caffeine and 100 nM tolbutamide). Samples were centrifuged at 3, 220 g for 40 minutes. Aliquot of 100 μL of the supernatant was mixed with 100 μL of ultra-pure H2O and then used for LC-MS/MS analysis.
Data Analysis: All calculations were carried out using Microsoft Excel. Peak areas were determined from extracted ion chromatograms. The slope value, k, was determined by linear regression of the natural logarithm of the remaining percentage of the parent drug vs. incubation time curve.
The in vitro half-life (in vitro t1/2) was determined from the slope value: in vitro t1/2=−([…]/k)
Conversion of the in vitro t1/2 (min) into the in vitro intrinsic clearance (in vitro CLint, in μL/min/mg protein) was done using the following equation (mean of duplicate determinations):
The calculations of Scaled-up CLint (mL/min/kg), Predicted CLH (mL/min/kg) and EH were done using the following equation: Scaled-up CLint=(0.693/t1/2)×(1/(microsomal protein concentration(0.5 mg/mL)))×Scaling Factors; Predicted CLH=(QH×Scaled-up CLint×fub)/(QH+Scaled-up CLint×fub); EH=Predicted CLH/QH • where QH is the hepatic blood flow (mL/min/kg) (Table 7), • fub is the fraction of unbound drug in plasma which is assumed to be 1. […]

[2] = Hepatocyte Stability Assay, human; format: in vitro ADME; details: cryopreserved hepatocytes, read-out: Human hepatocyte clearance
Protocol: Preparation of working solutions: 10 mM stock solutions of test compound and positive control were prepared in DMSO. In separate conical tubes, the 10 mM solution of test compound and the positive control were diluted to 100 μM by combining 198 μL of 50% acetonitrile/50% water and 2 μL of 10 mM stock.
Preparation of Hepatocytes: Incubation medium (William's E Medium supplemented with GlutaMAX) and hepatocyte thawing medium were placed in a 37° C. water bath and allowed warming for at least 15 minutes prior to use. A vial of cryopreserved hepatocytes was transferred from storage, ensuring that vials remained at cryogenic temperatures until thawing process ensued. Cells were thawed by placing the vial in a 37° C. water bath and gently shaking the vials for 2 minutes. […] Using an AO/PI Staining, cells were counted and the viable cell density was determined. Cells with poor viability (<75% viability) were determined to be not acceptable for use. […]
Data Analysis: All calculations were carried out using Microsoft Excel. Peak areas were determined from extracted ion chromatograms. In vitro half-life (t1/2) of parent compound was determined by regression analysis of the percent parent disappearance vs. time curve.
The in vitro half-life (in vitro t1/2) was determined from the slope value: in vitro t1/2=0.693/k […]

CLint scaled at 1 μM [1] | CLint scaled at 1 μM [2] | Compound
< 10 mL/min/kg | < 20 mL/min/kg | Cn1ncnc1C(=O)Nc1ccc2nc(-c3ccccc3C(F)(F)F)[nH]c2c1 [Compound H, 1-methyl-N-(2-(2-(trifluoromethyl)phenyl)-1H-benzo[d]imidazol-6-yl)-1H-1,2,4-triazole-5-carboxamide]
< 10 mL/min/kg | < 20 mL/min/kg | Cn1nccc1C(=O)Nc1ccc2nc(-c3ccccc3C(F)(F)F)[nH]c2c1 [A, 1-methyl-N-(2-(2-(trifluoromethyl)phenyl)-1H-benzo[d]imidazol-6-yl)-1H-pyrazole-5-carboxamide]

From patent publication US12570638B2, “Fused imidazole derivatives as AHR antagonists” (Sail Biomedicines, Inc., priority 2020, dated 2026)
